Test results reported in patent US11149037B2, “Pyrazole MAGL inhibitors” (H. Lundbeck A/S, priority 2017, dated 2021).

Key:
[1] = target: T1, MAGL (Mus musculus (Mouse), UniProt O35678); assay: In vitro competitive activity-based protein profiling, mouse proteomes (brain membrane fraction or cell lysates); assay type: biochemical; conditions: mouse proteome, read-out: MAGL % inh. 1 μM (mouse)
Method in brief: (§1)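 Activity of MAGL and FAAH was quantified from fluorescent gel band intensities. Beforehand, inhibitors at several concentrations competed against subsequent probe labelling (FP-Rh, JW912 or HT-01) in species-matched proteomes, each step 30 min at 37° C.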

[2] = target: T2, FAAH (Mus musculus (Mouse), UniProt O08914); assay: as above; assay type: biochemical; conditions: mouse proteome, read-out: FAAH % inh. 1 μM (mouse)
T2 sequence (O08914 whole entry): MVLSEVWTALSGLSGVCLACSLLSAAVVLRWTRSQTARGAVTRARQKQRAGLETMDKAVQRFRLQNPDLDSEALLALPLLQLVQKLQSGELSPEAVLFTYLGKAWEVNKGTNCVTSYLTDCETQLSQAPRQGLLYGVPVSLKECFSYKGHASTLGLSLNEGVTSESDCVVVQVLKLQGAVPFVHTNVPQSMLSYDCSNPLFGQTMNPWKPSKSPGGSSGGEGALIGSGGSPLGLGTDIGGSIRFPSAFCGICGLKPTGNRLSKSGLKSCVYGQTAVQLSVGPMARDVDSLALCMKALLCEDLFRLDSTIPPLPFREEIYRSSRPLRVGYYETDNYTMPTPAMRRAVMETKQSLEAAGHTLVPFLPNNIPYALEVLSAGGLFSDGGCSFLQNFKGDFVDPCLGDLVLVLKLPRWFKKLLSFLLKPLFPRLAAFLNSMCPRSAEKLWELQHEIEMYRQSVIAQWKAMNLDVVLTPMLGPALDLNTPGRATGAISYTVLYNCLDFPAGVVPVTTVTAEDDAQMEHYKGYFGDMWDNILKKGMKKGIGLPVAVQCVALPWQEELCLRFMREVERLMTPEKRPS
Method in brief: as §1

[3] = target: T1, MAGL; assay: Mouse brain proteomes from inhibitor treated mice (oral gavage, sacrificed 4 h after administration); assay type: in vivo; conditions: 5 mg/kg oral gavage
Description: (§2) Preparation of Mouse Brain Proteomes from Inhibitor Treated Mice.
(§3) Inhibitors were administered to wild-type C57B1/6J by oral gavage in a vehicle of polyethylene glycol. Each animal was sacrificed 4 h following administration and brain proteomes were prepared and analyzed according to previously established methods (See Niphakis, M. J., et al. (2011) ACS Chem. Neurosci. and Long, J. Z., et al. Nat. Chem. Biol. 5:37-44).

[4] = target: T2, FAAH; assay: as above; assay type: in vivo; conditions: 5 mg/kg oral gavage
Description: as §2, §3

[5] = target: FAAH (Homo sapiens (Human), UniProt O00519); assay: In vitro competitive activity-based protein profiling, human proteomes (prefrontal cortex or PC3 cell membrane fractions); assay type: biochemical; conditions: human proteome; for inhibition at 1 µM: read-out: FAAH % inh. 1 μM (human)
Chain of FAAH (Homo sapiens (Human), UniProt O00519) (O00519 whole entry): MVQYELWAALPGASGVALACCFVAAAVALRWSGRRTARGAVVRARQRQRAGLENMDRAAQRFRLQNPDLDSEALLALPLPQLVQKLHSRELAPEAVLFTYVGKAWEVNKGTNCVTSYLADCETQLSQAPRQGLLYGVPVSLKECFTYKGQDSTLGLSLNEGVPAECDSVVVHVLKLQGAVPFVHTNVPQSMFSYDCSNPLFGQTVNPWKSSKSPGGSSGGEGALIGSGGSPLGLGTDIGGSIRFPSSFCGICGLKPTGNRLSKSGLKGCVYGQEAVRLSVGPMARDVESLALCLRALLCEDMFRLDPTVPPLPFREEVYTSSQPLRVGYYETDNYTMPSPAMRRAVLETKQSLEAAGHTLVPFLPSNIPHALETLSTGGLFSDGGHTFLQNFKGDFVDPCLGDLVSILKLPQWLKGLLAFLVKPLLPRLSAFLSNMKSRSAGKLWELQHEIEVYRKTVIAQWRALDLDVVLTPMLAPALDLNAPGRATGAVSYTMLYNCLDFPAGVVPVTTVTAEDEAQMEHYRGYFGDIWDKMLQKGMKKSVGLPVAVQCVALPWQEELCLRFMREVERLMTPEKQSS
Method in brief: as §1

[6] = target: MAGL (Homo sapiens (Human), UniProt Q99685); assay: as above; assay type: biochemical; conditions: human proteome; for inhibition at 1 µM: read-out: MAGL % inh. 1 μM (human)
Chain of MAGL (Homo sapiens (Human), UniProt Q99685) (Q99685 whole entry): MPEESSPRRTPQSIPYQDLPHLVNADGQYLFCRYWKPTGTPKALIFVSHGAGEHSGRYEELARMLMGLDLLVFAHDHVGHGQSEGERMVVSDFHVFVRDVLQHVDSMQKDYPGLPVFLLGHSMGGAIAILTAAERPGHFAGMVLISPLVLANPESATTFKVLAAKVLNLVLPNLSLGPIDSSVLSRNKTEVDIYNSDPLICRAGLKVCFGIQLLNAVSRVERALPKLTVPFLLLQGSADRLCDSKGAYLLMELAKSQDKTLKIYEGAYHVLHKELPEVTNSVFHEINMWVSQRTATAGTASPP
Method in brief: as §1

T1 sequence (O35678 whole entry): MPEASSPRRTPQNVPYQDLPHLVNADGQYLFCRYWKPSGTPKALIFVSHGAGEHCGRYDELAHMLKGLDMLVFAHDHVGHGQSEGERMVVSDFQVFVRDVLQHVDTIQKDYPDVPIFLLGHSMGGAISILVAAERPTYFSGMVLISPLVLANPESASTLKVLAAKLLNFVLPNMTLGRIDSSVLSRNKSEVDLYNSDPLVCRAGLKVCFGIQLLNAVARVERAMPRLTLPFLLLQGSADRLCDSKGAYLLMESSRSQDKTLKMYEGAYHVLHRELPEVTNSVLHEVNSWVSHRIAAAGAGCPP

Row | inhibition at 1 µM [1] | inhibition at 1 µM [2] | inhibition at 1 µM [5] | inhibition at 1 µM [6] | IC50 [5] | IC50 [6] | Structure (SMILES) | MAGL % inh. 5 mg/kg (mouse) [3] | FAAH % inh. 5 mg/kg (mouse) [4]
1 | > 75% | 0 to 25% | 0 to 25% | > 75% |  |  | CS(=O)(=O)Nc1ccn(C(=O)N2CCN(Cc3ccc(Cl)c(N4CC[C@H](F)C4)c3)CC2)n1 [Example 117, (S)-N-(1-(4-(4-Chloro-3-(3-fluoropyrrolidin-1-yl)benzyl)piperazine-1-carbonyl)-1H-pyrazol-3-yl)methanesulfonamide] | B (% inhibition is greater than or equal to 50% and less than 75%) | D (% inhibition is greater than or equal to 0% and less than 25%)
2 | > 75% | 0 to 25% | 0 to 25% | > 75% |  |  | CC(=O)Nc1ccn(C(=O)N2CC[C@H](Oc3ccc(C(N)=O)c(C(F)(F)F)c3)[C@H](F)C2)n1 [Example 118, 4-(((3R,4S)-1-(3-Acetamido-1H-pyrazole-1-carbonyl)-3-fluoropiperidin-4-yl)oxy)-2-(trifluoromethyl)benzamide] | D (% inhibition is greater than or equal to 0% and less than 25%) | D (% inhibition is greater than or equal to 0% and less than 25%)
3 | > 75% | 0 to 25% | 0 to 25% | > 75% |  |  | CS(=O)(=O)Nc1ccn(C(=O)N2CCN(Cc3ccc(C(F)(F)F)c(N4CC[C@H](F)C4)c3)CC2)n1 [Example 119, (S)-N-(1-(4-(3-(3-Fluoropyrrolidin-1-yl)-4-(trifluoromethyl)benzyl)piperazine-1-carbonyl)-1H-pyrazol-3-yl)methanesulfonamide] | A (% inhibition is greater than or equal to 75%) | D (% inhibition is greater than or equal to 0% and less than 25%)
4 | > 75% | 0 to 25% | 0 to 25% | > 75% |  |  | CC(=O)Nc1ccn(C(=O)N2CCC3(CCN(Cc4ccc(C(N)=O)c(C(F)(F)F)c4)C3)CC2)n1 [Example 125, 4-((8-(3-Acetamido-1H-pyrazole-1-carbonyl)-2,8-diazaspiro[4.5]decan-2-yl)methyl)-2-(trifluoromethyl)benzamide] | D (% inhibition is greater than or equal to 0% and less than 25%) | D (% inhibition is greater than or equal to 0% and less than 25%)
5 | > 75% | > 75% | > 75% | > 75% | 1 to 10 µM | < 0.1 µM | CC(=O)Nc1ccn(C(=O)N2CCN(Cc3ccc(-c4ccccc4)cc3C)CC2)n1 [Example 131, N-(1-(4-((3-Methyl-[1,1′-biphenyl]-4-yl)methyl)piperazine-1-carbonyl)-1H-pyrazol-3-yl)acetamide] | A (% inhibition is greater than or equal to 75%) | A (% inhibition is greater than or equal to 75%)
6 | > 75% | 0 to 25% | 0 to 25% | > 75% | 1 to 10 µM | < 0.1 µM | CC(=O)Nc1ccn(C(=O)N2CCC(C)(N(C)Cc3cc(C(F)(F)F)cc(C4(C(=O)O)CCCC4)c3)CC2)n1 [Example 132, 1-(3-(((1-(3-Acetamido-1H-pyrazole-1-carbonyl)-4-methylpiperidin-4-yl)(methyl)amino)methyl)-5-(trifluoromethyl)phenyl)cyclopentane-1-carboxylic acid] | D (% inhibition is greater than or equal to 0% and less than 25%) | D (% inhibition is greater than or equal to 0% and less than 25%)
7 | > 75% | 0 to 25% | 0 to 25% | > 75% |  |  | C[C@@H]1CN(C(=O)n2ccc(NS(C)(=O)=O)n2)CCN1Cc1ccc(Cl)c(N2CC3COCC3C2)c1 (stereo partly drawn) [Example 133, N-(1-((3R)-4-(4-Chloro-3-(tetrahydro-1H-furo[3,4-c]pyrrol-5(3H)-yl)benzyl)-3-methylpiperazine-1-carbonyl)-1H-pyrazol-3-yl)methanesulfonamide] | D (% inhibition is greater than or equal to 0% and less than 25%) | D (% inhibition is greater than or equal to 0% and less than 25%)
8 | > 75% | 0 to 25% | 0 to 25% | > 75% |  |  | CS(=O)(=O)Nc1ccn(C(=O)N2CC[C@H](Oc3ccc(C(F)(F)F)c(N4CCC(F)CC4)c3)[C@H](F)C2)n1 [Example 134, N-(1-((3R,4S)-3-Fluoro-4-(3-(4-fluoropiperidin-1-yl)-4-(trifluoromethyl)phenoxy)piperidine-1-carbonyl)-1H-pyrazol-3-yl)methanesulfonamide] | C (% inhibition is greater than or equal to 25% and less than 50%) | D (% inhibition is greater than or equal to 0% and less than 25%)
9 | > 75% | 0 to 25% | 0 to 25% | > 75% |  |  | C[C@H]1CN(Cc2ccc(Cl)c(N3CC4COCC4C3)c2)CCN1C(=O)n1ccc(NS(C)(=O)=O)n1 (stereo partly drawn) [Example 135, N-(1-((2S)-4-(4-Chloro-3-(tetrahydro-1H-furo[3,4-c]pyrrol-5(3H)-yl)benzyl)-2-methylpiperazine-1-carbonyl)-1H-pyrazol-3-yl)methanesulfonamide] | D (% inhibition is greater than or equal to 0% and less than 25%) | D (% inhibition is greater than or equal to 0% and less than 25%)
10 | > 75% | 0 to 25% | 0 to 25% | > 75% |  |  | C[C@H]1CN(Cc2ccc(Cl)c(N3CCC(F)CC3)c2)CCN1C(=O)n1ccc(NS(C)(=O)=O)n1 [Example 136, (S)-N-(1-(4-(4-Chloro-3-(4-fluoropiperidin-1-yl)benzyl)-2-methylpiperazine-1-carbonyl)-1H-pyrazol-3-yl)methanesulfonamide] | A (% inhibition is greater than or equal to 75%) | D (% inhibition is greater than or equal to 0% and less than 25%)
11 | > 75% | 0 to 25% | 0 to 25% | > 75% |  |  | C[C@@H]1CN(Cc2ccc(Cl)c(N3CC4COCC4C3)c2)CCN1C(=O)n1ccc(NS(C)(=O)=O)n1 (stereo partly drawn) [Example 137, N-(1-((2R)-4-(4-Chloro-3-(tetrahydro-1H-furo[3,4-c]pyrrol-5(3H)-yl)benzyl)-2-methylpiperazine-1-carbonyl)-1H-pyrazol-3-yl)methanesulfonamide] | D (% inhibition is greater than or equal to 0% and less than 25%) | D (% inhibition is greater than or equal to 0% and less than 25%)
12 | > 75% | 0 to 25% | 0 to 25% | > 75% |  |  | C[C@@H]1CN(C(=O)n2ccc(NS(C)(=O)=O)n2)CCN1Cc1ccc(Cl)c(N2CCC(F)CC2)c1 [Example 138, (R)-N-(1-(4-(4-Chloro-3-(4-fluoropiperidin-1-yl)benzyl)-3-methylpiperazine-1-carbonyl)-1H-pyrazol-3-yl)methanesulfonamide] | A (% inhibition is greater than or equal to 75%) | D (% inhibition is greater than or equal to 0% and less than 25%)
